Experimental data from ChEMBL document CHEMBL5505999, “Discovery of anti-inflammatory agents from 3, 4-dihydronaphthalene-1(2H)-one derivatives by inhibiting NLRP3 inflammasome activation” (Eur J Med Chem, 2024).

How the values were obtained:
RAW264.7 [1] = assay: Anti-inflammatory activity in mouse RAW264.7 cells assessed as inhibition of LPS-induced TNF-alpha production at 2.5 uM pretreated with compound for 2 hrs followed by LPS addition and measured after 22 hrs by ELISA relative to control; type: functional; details: time 24 hrs
[2] = Cytotoxicity against mouse RAW264.7 cells assessed as survival rate at 2.5 uM incubated overnight by CCK-8 assay relative to control; type: toxicity, cell-based; details: read-out: Survival
RAW264.7 [3] = assay: Anti-inflammatory activity in mouse RAW264.7 cells assessed as inhibition of LPS-induced IL-6 production at 2.5 uM pretreated with compound for 2 hrs followed by LPS addition and measured after 22 hrs by ELISA relative to control; type: functional; details: time 24 hrs
RAW264.7 [4] = assay: Anti-inflammatory activity in mouse RAW264.7 cells assessed as inhibition of LPS-induced TNF-alpha production at 10 uM pretreated with compound for 2 hrs followed by LPS addition and measured after 22 hrs by ELISA relative to control; type: functional; details: time 24 hrs
RAW264.7 [5] = assay: Anti-inflammatory activity in mouse RAW264.7 cells assessed as inhibition of LPS-induced IL-6 production at 10 uM pretreated with compound for 2 hrs followed by LPS addition and measured after 22 hrs by ELISA relative to control; type: functional; details: time 24 hrs

SMILES | inhibition at 2.5 µM (RAW264.7 [1]) [%] | viability at 2.5 µM [2] [%] | inhibition at 2.5 µM (RAW264.7 [3]) [%] | inhibition at 10 µM (RAW264.7 [4]) [%] | inhibition at 10 µM (RAW264.7 [5]) [%]
O=C1/C(=C/c2ccc(-n3ccnc3)cc2)CCc2cc(Br)ccc21 | 32.4 | 82.6 | 49 |  | 
O=C1/C(=C/c2ccc(-n3ccnc3)cc2)CCc2ccc(F)cc21 | 19 | 98 | 34.3 |  | 
CN1CCN(c2ccc(/C=C3\CCc4cc(F)ccc4C3=O)cc2)CC1 | 37.1 | 90.5 | 48.4 |  | 
O=C1/C(=C/c2ccc(-n3ccnc3)cc2)CCc2ccc(O)cc21 | 25.3 | 87.1 | 50.2 |  | 
CN1CCN(c2ccc(/C=C3\CCc4ccc(O)cc4C3=O)cn2)CC1 | 55.9 | 85.5 | 66.6 |  | 
COc1ccc2c(c1)CC/C(=C\c1ccc(N3CCOCC3)nc1)C2=O | 45 | 96 | 59.2 |  | 
CN1CCN(c2ccc(/C=C3\CCc4ccc(F)cc4C3=O)cn2)CC1 | 35.3 | 88.7 | 51.6 |  | 
COc1ccc2c(c1)CC/C(=C\c1ccc(N3CCN(C)CC3)cc1)C2=O | 34.6 | 91.3 | 50.9 |  | 
COc1ccc2c(c1)CC/C(=C\c1ccc(N3CCN(C)CC3)nc1)C2=O | 39.6 | 88.9 | 55 |  | 
COc1ccc2c(c1)CC/C(=C\c1ccc(-n3ccnc3)cc1)C2=O | 31.7 | 92.8 | 48.2 |  | 
O=C1/C(=C/c2ccc(N3CCOCC3)nc2)CCc2ccc(F)cc21 | 23.8 | 99.8 | 40.2 |  | 
CN1CCN(c2ccc(/C=C3\CCc4ccc(F)cc4C3=O)nc2)CC1 | 30.5 | 93.5 | 47.2 |  | 
O=C1/C(=C/c2ccc(N3CCOCC3)cc2)CCc2cc(F)ccc21 | 32.1 | 81.1 | 48.7 |  | 
O=C1/C(=C/c2ccc(N3CCOCC3)nc2)CCc2ccc(O)cc21 | 30.8 | 104 | 48 |  | 
O=C1/C(=C/c2ccc(N3CCOCC3)nc2)CCc2cc(Br)ccc21 | 31.4 | 86.2 | 47.5 |  | 
COc1ccc2c(c1)C(=O)/C(=C/c1ccc(N3CCOCC3)cc1)CC2 | 30.5 | 82.2 | 47.2 |  | 
O=C1/C(=C/c2ccc(N3CCOCC3)nc2)CCc2ccc(Br)cc21 | 23.8 | 96.2 | 36.1 |  | 
COc1ccc2c(c1)C(=O)/C(=C/c1ccc(N3CCOCC3)nc1)CC2 | 27.6 | 82.4 | 44.3 |  | 
O=C1/C(=C/c2ccc(-n3ccnc3)cc2)CCc2ccc(Br)cc21 | 39.8 | 91.2 | 55.3 |  | 
CN1CCN(c2ccc(/C=C3\CCc4cc(Br)ccc4C3=O)nc2)CC1 | 40.6 | 96.8 | 55.9 |  | 
CN1CCN(c2ccc(/C=C3\CCc4ccc(Br)cc4C3=O)cn2)CC1 | 51 | 104 | 63.4 |  | 

SMILES | inhibition at 2.5 µM (RAW264.7 [1]) [%] | viability at 2.5 µM [2] [%] | inhibition at 2.5 µM (RAW264.7 [3]) [%] | inhibition at 10 µM (RAW264.7 [4]) [%] | inhibition at 10 µM (RAW264.7 [5]) [%]
S=C(S)N1CCCC1 [PYRROLIDINE DITHIOCARBAMATE] |  |  |  | 36 | 48
CN1CCN(c2ccc(/C=C3\CCc4ccc(O)cc4C3=O)nc2)CC1 | 41.6 | 98.6 | 56.7 |  | 
COc1ccc2c(c1)CC/C(=C\c1ccc(N3CCOCC3)cc1)C2=O | 31.6 | 89.3 | 53.1 |  | 
COc1ccc2c(c1)C(=O)/C(=C/c1ccc(N3CCN(C)CC3)cn1)CC2 | 35.3 | 89 | 51.6 |  | 
COc1ccc2c(c1)C(=O)/C(=C/c1ccc(N3CCN(C)CC3)nc1)CC2 | 34.7 | 84.9 | 51.1 |  | 
COc1ccc2c(c1)C(=O)/C(=C/c1ccc(-n3ccnc3)cc1)CC2 | 39.8 | 88.7 | 55.3 |  | 
CN1CCN(c2ccc(/C=C3\CCc4ccc(Br)cc4C3=O)cc2)CC1 | 49.8 | 116 | 62.6 |  | 
O=C1/C(=C/c2ccc(N3CCOCC3)nc2)CCc2cc(F)ccc21 | 31 | 85.2 | 47.7 |  | 
CN1CCN(c2ccc(/C=C3\CCc4cc(Br)ccc4C3=O)cc2)CC1 | 42.4 | 87 | 53.3 |  | 
O=C1/C(=C/c2ccc(-n3ccnc3)cc2)CCc2cc(F)ccc21 | 39.4 | 80.7 | 54.9 |  | 
COc1ccc2c(c1)C(=O)/C(=C/c1ccc(OC)c(C(F)(F)F)c1)CC2 | 51 | 114 | 44.2 |  | 
O=C1/C(=C/c2ccc(N3CCOCC3)cc2)CCc2cc(Br)ccc21 | 29.6 | 92.8 | 46.4 |  | 
CN1CCN(c2ccc(/C=C3\CCc4ccc(O)cc4C3=O)cc2)CC1 | 41.1 | 103 | 56.3 |  | 
CN1CCN(c2ccc(/C=C3\CCc4cc(F)ccc4C3=O)cn2)CC1 | 32.8 | 98.2 | 49.3 |  | 
O=C1/C(=C/c2ccc(N3CCOCC3)cc2)CCc2ccc(O)cc21 | 32.3 | 81.6 | 48.9 |  | 
CN1CCN(c2ccc(/C=C3\CCc4cc(Br)ccc4C3=O)cn2)CC1 | 39 | 87.8 | 54.7 |  | 
COc1ccc2c(c1)C(=O)/C(=C/c1ccc(N3CCN(C)CC3)cc1)CC2 | 33.6 | 98 | 50.1 |  | 
O=C1/C(=C/c2ccc(N3CCOCC3)cc2)CCc2ccc(Br)cc21 | 22.4 | 82.7 | 38.6 |  | 
CN1CCN(c2ccc(/C=C3\CCc4ccc(F)cc4C3=O)cc2)CC1 | 37.3 | 91.5 | 57.3 |  | 
O=C1/C(=C/c2ccc(N3CCOCC3)cc2)CCc2ccc(F)cc21 | 29.5 | 82.7 | 46.2 |  | 
